Assay results as given in patent US6410790B1, “3-amin3-arylpropan-1-ol compounds, their preparation and use” (priority 1999, dated 2002).

Assays:
[1] = test system: benzothiazepine binding site of the L-type calcium channel; assay: Diltiazem binding, L calcium channel; parameters: species or system rat; details: 10 μM, percentage inhibition, [3H]-cis-(+)-diltiazem 5 nM, rat cerebral cortex membranes
Protocol: Binding Investigations in the L Calcium Channel
Benzothiazepine Binding Site (Diltiazem Binding)
The biological membrane material was isolated from the rat cerebral cortex. [^3H]-cis-(+)-diltiazem (5 nM in the assay) was used as ligand. The material was incubated for 20 minutes at 25° C. The radioactivity that is measured in the presence of (±)-diltiazem (10^−6 M in the assay) is defined as non-specific binding. After completion of incubation the non-bound fraction of the radioactive ligand is separated by means of a filtration process using Whatman Glasfiber GF/B membranes. The membranes are washed and the radioactivity is then measured using a β-counter. The method is based on the details published by Schoemaker and Langer (H. Schoemaker and S. Z. Langer (1985) Eur. J. Pharmacol. 111, 273-277).
(§1) For this purpose IC50 values are obtained, which can be converted to inhibitor constants (Ki) according to the “Cheng-Prusoff equation” (Y. C. Clieng and W. H. Prusoff (1973) Biochem. Pharmacol. 22, 3099-3108). The IC50 values were obtained by means of the computer program “Figure P” (version 6.0, Biosoft, Cambridge, England). Km values were calculated according to Lineweaver and Burk (H. Lineweaver and D. Burk (1934) J. Am. Chem. Soc. 56, 658-666). The “Ligand” computer program (version 4, Biosoft, England) was used to obtain Ken values.

NA transporter = target: T1, NA transporter (Rattus norvegicus, UniProt Q63380); assay: synaptosomal noradrenaline uptake inhibition (NA uptake inhibition); assay type: biochemical; details: for inhibition at 1 µM: read-out: NA Uptake Inhibition at 1 μM, 1 μM in the assay, synaptosomes from rat hypothalamus; for NA Uptake Inhibition at 1 μM: 1 μM in the assay, synaptosomes from rat hypothalamus
T1 construct: synaptosomes are isolated fresh from rat brains; from tissue; host or cells: rat hypothalamus synaptosomes (P2 fraction)
T1 sequence (Q63380 1-617): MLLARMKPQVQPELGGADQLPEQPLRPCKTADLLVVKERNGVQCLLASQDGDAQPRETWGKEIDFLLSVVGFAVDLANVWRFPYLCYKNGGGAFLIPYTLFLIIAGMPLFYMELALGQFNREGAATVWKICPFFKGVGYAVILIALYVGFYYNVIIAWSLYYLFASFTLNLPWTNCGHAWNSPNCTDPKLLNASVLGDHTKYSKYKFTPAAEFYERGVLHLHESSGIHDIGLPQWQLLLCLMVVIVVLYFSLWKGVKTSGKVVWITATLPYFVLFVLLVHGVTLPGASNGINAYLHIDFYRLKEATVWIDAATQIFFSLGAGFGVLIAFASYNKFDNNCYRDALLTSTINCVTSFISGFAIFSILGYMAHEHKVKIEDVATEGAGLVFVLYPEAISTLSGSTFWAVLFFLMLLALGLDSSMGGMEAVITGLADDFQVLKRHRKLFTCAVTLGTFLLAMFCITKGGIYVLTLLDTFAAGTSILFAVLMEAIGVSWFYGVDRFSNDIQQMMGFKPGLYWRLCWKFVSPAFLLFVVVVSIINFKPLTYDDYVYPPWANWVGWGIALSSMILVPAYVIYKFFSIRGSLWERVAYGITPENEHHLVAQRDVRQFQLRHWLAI
Protocol: In order to carry out these in vitro studies, synaptosomes are isolated fresh from rat brains. In each case a so-called “P2” fraction is used, which is prepared according to the protocol of Gray and Whittaker (E. G. Gray and V. P. Whittaker (1962) J. Anat. 76, 79-88).
(in each case N=4, i.e. mean values±SEM from 4 independent series of experiments that were carried out in the form of triple parallel experiments).
as §1

[2] = test system: binding site 2 of the sodium channel; assay: BTX binding, sodium channel; details: 10 μM, percentage inhibition, [3H]-batrachotoxin A20 α-benzoate 10 nM, rat cerebral cortex synaptosomes
Protocol: Binding Investigations in the Sodium Channel
Binding Site 2 (BTX Binding)
The binding site 2 of the sodium channel is the so-called batrachotoxin (BTX) binding site. [^3H]-batrachlotoxin A20 α-benzoate (10 nM in the assay) was used as ligand. These ion channel particles (synaptosomes) were concentrated from rat cerebral cortex according to the procedure of Gray and Whittaker (E. G. Gray and V. P. Whittaker (1962) J. Anat. 76, 79-88). The radioactivity that is measured in the presence of veratridine (0.3 mM in the assay) is defined as non-specific binding. The material was incubated at 37° C. for 120 minutes. The assay conditions are carried out according to the protocol published by Pauwels, Leysen and Laduron (P. J. Pauwels, J. E. Leysen and P. M. Laduron (1986) Eur. J. Pharmacol. 124, 291-298).
(N=3, i.e. mean values±SEM from 3 independent series of experiments that were carried out in the form of triple parallel experiments).
as §1

[3] = test system: phenylquinone-induced writhing reaction; assay: phenylquinone-induced writhing test in mice; assay type: in vivo; details: male NMRI mice, phenylquinone i.p. 10 minutes later; for inhibition in vivo at 10 mg/kg: Mus musculus, iv, 10 min, 10 mg/kg intravenously
Protocol: Analgesic Effect in the Writhing Test in Mice
The analgesic effect was investigated in the phenylquinone-induced writhing test in mice (as modified by I. C. Hendershot and J. Forsaith (1959) J. Pharmacol. Exp. Ther. 125, 237-240). Male NMRI mice weighing 25 to 30 g were used for the test. Groups of 10 animals each received by intraperitoineal application, for each substance dose, 0.3 ml/mouse of a 0.02% aqueous solution of phenylquinone (phenylbenzoquinone, Sigma Company, Deisenhofen; solution prepared with addition of 5% of ethanol and kept in a water bath at 45° C.) 10 minutes after intravenous administration of the test substances. The animals were placed individually in observation cages. The number of pain-induced stretching movements (so-called writhing reactions=straightening of the body together with stretching of the rear extremities) was measured by means of a push-button counter 5 to 20 minutes after administration of the phenylquinone. Animals that had received only physiological saline solution served as controls. All substances were tested in the standard dose of 10 mg/kg. The percentage inhibition (% inhibition) of the writhing reaction produced by a substance was calculated according to the following formula: [formula]

SMILES	Diltiazem Binding at 10 μM [1]	inhibition at 1 µM (NA transporter)	BTX Binding at 10 μM [2]	inhibition in vivo at 10 mg/kg [3]	Diltiazem Binding at 10 μM ([1]; hydrochloride)	NA Uptake Inhibition at 1 μM (NA transporter; hydrochloride)	BTX Binding at 10 μM ([2]; hydrochloride)	NA Uptake Inhibition at 1 μM (NA transporter)	% Inhibition of the writhing reaction at 10 mg/kg intravenously [3]
CN(C)C(c1ccc(Br)cc1)C1CCCCC1(O)Cc1ccccc1.Cl (centres unmarked) [Example 61, 1-benzyl-2-[(4-bromophenyl)dimethylaminomethyl]cyclohexanol, hydrochloride]	89%	100%	98%	90%	–	–	–	–	–
CN(C)C(c1ccc(Cl)cc1)C1CCCCC1(O)c1ccc(C(F)(F)F)cc1.Cl (centres unmarked) [Example 62, 2-[(4-chlorophenyl)dimethylaminomethyl]-1-(4-trifluoromethylphenyl)cyclohexanol, hydrochloride]	83%	80%	93%	94%	–	–	–	–	–
CN(C)C(c1ccc(Cl)cc1)C1CCCCC1(O)Cc1cccc(C(F)(F)F)c1.Cl (centres unmarked) [Example 63, 2-[(4-chlorophenyl)dimethylaminomethyl]-1-(3-trifluoromethylbenzyl)cyclohexanol, hydrochloride]	95%	94%	99%	86%	–	–	–	–	–
CN(C)C(c1cccc(Oc2ccccc2)c1)C1CCCCC1(O)Cc1ccc(C(C)(C)C)cc1.Cl (centres unmarked) [Example 64, 1-(4-tert.-butylbenzyl)-2-[dimethylamino-(3-phenoxyphenyl)methyl]cyclohexanol, hydrochloride]	87%	36%	100%	88%	–	–	–	–	–
CN(C)C(c1ccc(C#N)cc1)C1CCCCC1(O)c1ccc(C(F)(F)F)cc1.Cl (centres unmarked) [Example 65, 4-{dimethylamino-[2-hydroxy-2-(4-trifluoromethylphenyl)cyclohexyl]methyl}benzonitrile, hydrochloride]	72%	0%	78%	76%	–	–	–	–	–
Cc1ccccc1C(C1CCCCC1(O)c1ccccc1)N(C)C.Cl (centres unmarked) [Example 66, 2-(dimethylamino-o-tolylmethyl)-1-phenylcyclohexanol, hydrochloride]	–	–	–	91%	65%	15%	89%	–	–
Cc1ccccc1C(C1CCCCC1(O)Cc1ccccc1)N(C)C.Cl (centres unmarked) [Example 67, 1-benzyl-2-(dimethylamino-o-tolylmethyl)cyclohexanol, hydrochloride]	98%	83%	97%	84%	–	–	–	–	–
CN(C)C(c1ccccc1)C1CCCCC1(O)CCCc1ccccc1.Cl (centres unmarked) [Example 68, 2-(dimethylaminophenylmethyl)-1-(3-phenylpropyl)cyclohexanol, hydrochloride]	88%	49%	98%	55%	–	–	–	–	–
CN(C)C(c1ccccc1Cl)C1CCCCC1(O)CCc1ccc(F)cc1.Cl (centres unmarked) [Example 69, 2-[(2-chlorophenyl)dimethylaminomethyl]-1-[2-(4-fluorophenyl)ethyl]cyclohexanol, hydrochloride]	93%	76%	96%	45%	–	–	–	–	–
CN(C)C(c1cccs1)C1CCCCC1(O)Cc1cccc(C(F)(F)F)c1.Cl (centres unmarked) [Example 70, 2-[dimethylaminothiophen-2-ylmethyl]-1-(3-trifluoromethylbenzyl)cyclohexanol, hydrochloride]	91%	–	93%	–	–	–	–	74%	98%
COC(=O)c1ccc(C2(O)CCCCC2C(c2ccccc2)N(C)C)cc1.Cl (centres unmarked) [Example 71, Methyl-4-[2-(dimethylaminophenylmethyl)-1-hydroxycyclohexyl]benzoate, hydrochloride]	74%	88%	81%	55%	–	–	–	–	–
CN(C)C(c1ccccc1)C1CC(c2ccccc2)CCC1(O)Cc1ccccc1.Cl (centres unmarked) [Example 72, 1-benzyl-2-(dimethylaminophenylmethyl)-4-phenylcyclohexanol, hydrochloride]	97%	64%	99%	89%	–	–	–	–	–
CN(C)C(c1ccccc1)C1CCCCC1(O)c1ccc(Br)cc1.Cl (centres unmarked) [Example 73]	89%	–	93%	–	–	–	–	61%	75%
CN(C)C(c1ccccc1)C1CCCCC1(O)c1cccc2ccccc12.Cl (centres unmarked) [Example 74, 2-(dimethylaminophenylmethyl)-1-naphthalene-1-ylcyclohexanol, hydrochloride]	83%	24%	93%	37%	–	–	–	–	–
CSc1ccccc1C1(O)CCCCC1C(c1ccccc1)N(C)C.Cl (centres unmarked) [Example 75, 2-(dimethylaminophenylmethyl)-1-(2-methylsulfanylphenyl)cyclohexanol, hydrochloride]	89%	0%	93%	57%	–	–	–	–	–
CN(C)C(c1ccc2ccccc2c1)C1CCCCC1(O)Cc1ccccc1.Cl (centres unmarked) [Example 76, 1-benzyl-2-(dimethylaminonaphthalene-2-ylmethyl)cyclohexanol, hydrochloride]	73%	80%	90%	60%	–	–	–	–	–
CN(C)C(c1c(F)c(F)c(F)c(F)c1F)C1CCCCC1(O)Cc1ccccc1.Cl (centres unmarked) [Example 77, 1-benzyl-2-(dimethylaminopentafluorophenylmethyl)cyclohexanol, hydrochloride]	27%	27%	56%	54%	–	–	–	–	–
Cl.OC1(Cc2ccccc2)CCCCC1C(c1ccccc1)N1CCCCC1 (centres unmarked) [Example 78, 1-benzyl-2-(phenylpiperidin-1-ylmethyl)cyclohexanol, hydrochloride]	95%	84%	96%	73%	–	–	–	–	–
CN(C)C(c1ccccc1)C1CCCCC1(O)c1ccc(C(F)(F)F)cc1.Cl (centres unmarked) [Example 79]	67%	–	93%	–	–	–	–	58%	71%
CCC(O)(Cc1ccc(C(C)(C)C)cc1)C(C)C(c1ccccc1)N(C)C.Cl (centres unmarked) [Example 80]	100%	–	100%	–	–	–	–	18%	61%
